Assay results as given in patent US9408393B2, “Bismuth-thiols as antiseptics for agricultural, industrial and other uses” (Microbion Corporation, priority 2010, dated 2016).
Where two headings read alike, the source gives them in different places.

Tests used:
[1] = tested on: Escherichia coli; experiment: Single-point BisEDT-antibiotic combination FICI; type: cell-based
[2] = tested on: Klebsiella pneumoniae; experiment: Single-point BisEDT-antibiotic combination FICI; type: cell-based; details: KP 1231
[3] = tested on: Pseudomonas aeruginosa; experiment: Single-point BisEDT-antibiotic combination FICI; type: cell-based; details: PA 1380
[4] = tested on: Burkholderia cepacia; experiment: Single-point BisEDT-antibiotic combination FICI; type: cell-based; details: Bcep 1756
[5] = tested on: Bukholderia multivorans; experiment: Single-point BisEDT-antibiotic combination FICI; type: cell-based; details: Bmult 5665
[6] = tested on: Acinetobacter baumanii; experiment: Single-point BisEDT-antibiotic combination FICI; type: cell-based; details: Abau 2594
[7] = tested on: P. aeruginosa; experiment: Checkerboard broth microdilution MIC and FICI; type: cell-based, Pseudomonas aeruginosa; details: Pseudomonas aeruginosa, compound alone, read-out: MIC (μg/mL) Alone
Experimental: (§1) The effects of combinations of microparticulate Bis-EDT and four Bis-EDT analogs prepared as described above, and other agents against representative strains of several Gram-negative pathogenic bacteria were tested. A modification of a common laboratory method was used to determine synergism (FICI≦0.5), enhancement (0.5<FICI≦1.0), antagonism (FICI>4.0) and indifference (1.0<FICI≦4.0) used fractional inhibitory concentrations (FICs) and FIC indices (FICI) (Eliopoulos G and R Moellering. 1991. Antimicrobial combinations. In Antibiotics in Laboratory Medicine, Third Edition, edited by V Lorian. Williams and Wilkins, Baltimore, Md., pp. 432-492; Odds, 2003 J. Antimicrob. Chemother. 52(1):1). The checkerboard technique was used to determine FIC indices and was employed in this study.
(§2) Stock solutions of all test articles were prepared at 40× the final target concentration in the appropriate solvent. […] The final drug concentrations in the FIC assay plates were set to bracket the MIC value of each agent for each test organism, unless the strain was totally resistant to the test agent. […] The test organisms were originally received from clinical sources, or from the American Type Culture Collection. Upon receipt, the isolates were streaked onto Tryptic Soy Agar II (TSA). Colonies were harvested from these plates and a cell suspension was prepared in an appropriate broth growth medium containing cryoprotectant. Aliquots were then frozen at −80° C. The frozen seeds of the organisms to be tested in a given assay were thawed, streaked for isolation onto TSA plates, and incubated at 35° C. All organisms were tested in Mueller Hinton II Broth (Becton Dickinson, Lot No. 9044411). The broth was prepared at 1.05× normal weight/volume to offset the 5% volume of the drugs in the final test plates.
(§3) Minimal Inhibitory Concentration (MIC) values were previously determined using the broth microdilution method for aerobic bacteria (Clinical and Laboratory Standards Institute (CLSI). Methods for Dilution Antimicrobial Susceptibility Tests for Bacteria That Grow Aerobically; Approved Standard—Eighth Edition. CLSI document M07-A8 [ISBN 1-56238-689-1]. Clinical and Laboratory Standards Institute, 940 West Valley Road, Suite 1400, Wayne, Pa. 19087-1898 USA, 2009.).
(§4) FIC values were determined using a broth microdilution method previously described (Sweeney et al., 2003 Antimicrob. Agents Chemother. 47(6):1902-1906). To prepare the test plates, automated liquid handlers (Multidrop 384, Labsystems, Helsinki, Finland; Biomek 2000 and Multimek 96, Beckman Coulter, Fullerton Calif.) were used to conduct serial dilutions and liquid transfers.
(§5) The appropriate wells of standard 96-well microdilution plates (Falcon 3918) were filled with 150 μL of the appropriate solvent in columns 2-12 using the Multidrop 384. Three hundred microliters of each secondary test drug was added to each well in Column 1 of the plates. These plates were used to prepare the drug “mother plates” which provided the serial drug dilutions for the drug combination plates. The Biomek 2000 was used to transfer 150 μL of each secondary drug solution (40×) from the wells in Column 1 of the mother plate and to make eleven 2-fold serial dilutions. Mother plates of Bis-EDT (and analogs) were serial diluted top to bottom by hand, using a multichannel pipette. Two mother plates, one for each secondary drug and one for Bis-EDT (or analogs), were combined to form a “checkerboard” pattern by transfer of equal volumes (using a multi-channel pipette) to the drug combination plate. Row H and Column 12 each contained serial dilutions of one of the agents alone for determination of the MIC.
(§6) The “daughter plates” were loaded with 180 μL of test medium using the Multidrop 384. Then, the Multimek 96 was used to transfer 10 μL of drug solution from each well of the drug combination mother plate to each corresponding well of the daughter plate in a single step.

[8] = tested on: Staphylococcus aureus (SA, MRSA); experiment: Single-point BisEDT-antibiotic combination FICI; type: cell-based
[9] = tested on: Enterococcus faecalis; experiment: Single-point BisEDT-antibiotic combination FICI; type: cell-based; details: E Fc 3121
[10] = tested on: Gram-negative pathogenic bacteria; experiment: Checkerboard broth microdilution MIC and FICI; type: cell-based; details: compound alone; for MIC: Klebsiella pneumoniae, read-out: MIC (μg/mL) Alone
Experimental: as §1, §2, §3, §4, §5, §6

[11] = tested on: Streptococcus pneumoniae (SP, PRSP); experiment: Single-point BisEDT-antibiotic combination FICI; details: PRSP 5348

| Structure (SMILES) | FICI, single-point BisEDT-antibiotic combination ([1]; EC 102) | FICI, single-point BisEDT-antibiotic combination ([1]; EC 2232) | FICI, single-point BisEDT-antibiotic combination [2] | FICI, single-point BisEDT-antibiotic combination [3] | FICI, single-point BisEDT-antibiotic combination [4] | FICI, single-point BisEDT-antibiotic combination [5] | FICI, single-point BisEDT-antibiotic combination [6] | FICI, single-point BisEDT-antibiotic combination ([8]; MRSA 773) | FICI, single-point BisEDT-antibiotic combination ([8]; SA 100) | FICI, single-point BisEDT-antibiotic combination [9] | FICI, single-point BisEDT-antibiotic combination [11] | other results |
| --- | --- | --- | --- | --- | --- | --- | --- | --- | --- | --- | --- | --- |
| C[C@H]1[C@H](NC(=O)/C(=N\OC(C)(C)C(=O)O)c2csc(N)n2)C(=O)N1S(=O)(=O)O [Aztreonam] | 0.74 | 1.29 | 0.73 | 0.55 | 0.67 | 0.96 | 0.87 | – | – | – | – | MIC ([7]; P. aeruginosa 103): 8 µg/mL; MIC ([7]; P. aeruginosa 1381): 64 µg/mL; MIC ([7]; P. aeruginosa 1384): 8 µg/mL; MIC ([7]; P. aeruginosa 1474): 8 µg/mL; MIC ([7]; P. aeruginosa 1479): 8 µg/mL; MIC ([7]; P. aeruginosa 2566): 16 µg/mL; MIC ([7]; P. aeruginosa 2568): 8 µg/mL |
| CO/N=C(\C(=O)N[C@@H]1C(=O)N2C(C(=O)O)=C(COC(C)=O)CS[C@H]12)c1csc(N)n1 [Cefotaxime] | 1.37 | 1.29 | 0.61 | 0.64 | 1.29 | 1.11 | 1.29 | 2.23 | 1.11 | 0.73 | 1.11 | MIC ([7]; P. aeruginosa 103): 16 µg/mL; MIC (μg/mL) Alone ([10]; K. pneumoniae 1355): 0.12 µg/mL; MIC (μg/mL) Alone ([10]; K. pneumoniae 2238): 8 µg/mL; MIC (μg/mL) Alone ([10]; K. pneumoniae 2549): 0.06 µg/mL; MIC ([10]; K. pneumoniae 1346): 0.06 µg/mL; MIC ([10]; K. pneumoniae 1355): 0.06 µg/mL; MIC ([10]; K. pneumoniae 2238): 16 µg/mL; MIC ([10]; K. pneumoniae 2546): 0.25 µg/mL; MIC ([10]; K. pneumoniae 2549): 0.12 µg/mL |
| CO/N=C(\C(=O)N[C@@H]1C(=O)N2C(C(=O)O)=C(COC(N)=O)CS[C@H]12)c1ccco1 [Cefuroxime] | – | – | – | – | – | – | – | 4.23 | 1.11 | 1.11 | 1.03 | – |
| O=C(O)c1cn(C2CC2)c2cc(N3CCNCC3)c(F)cc2c1=O [Ciprofloxacin] | 1.14 | – | – | 2.75 | 2.23 | 2.29 | 1.04 | – | – | – | – | – |
| CC[C@H]1OC(=O)[C@H](C)[C@@H](O[C@H]2C[C@@](C)(OC)[C@@H](O)[C@H](C)O2)[C@H](C)[C@@H](O[C@@H]2O[C@H](C)C[C@H](N(C)C)[C@H]2O)[C@](C)(O)C[C@@H](C)C(=O)[C@H](C)[C@@H](O)[C@]1(C)O [Erythromycin] | – | – | – | – | – | – | – | 0.67 | – | 0.92 | 1.03 | – |
| C[C@H]1COc2c(N3CCN(C)CC3)c(F)cc3c(=O)c(C(=O)O)cn1c23 [Levofloxacin] | – | – | – | – | – | – | – | 1.11 | 1.23 | 1.08 | 0.70 | – |
| Cc1onc(-c2ccccc2)c1C(=O)N[C@@H]1C(=O)N2[C@@H]1SC(C)(C)[C@@H]2C(=O)O [Oxacillin] | – | – | – | – | – | – | – | 2.28 | – | 0.92 | 1.03 | – |
| C[C@@H]1O[C@@H]1P(=O)(O)O [Phosphomycin] | – | 1.96 | 1.02 | 1.86 | 1.29 | 1.23 | 1.12 | 0.61 | – | 1.23 | 1.45 | – |
| CCN1CCN(C(=O)N[C@@H](C(=O)N[C@@H]2C(=O)N3[C@@H]2SC(C)(C)[C@@H]3C(=O)O)c2ccccc2)C(=O)C1=O [Piperacillin] | 0.87 | 1.29 | 2.23 | 0.67 | 1.12 | 1.12 | 1.12 | 1.28 | 0.57 | 1.11 | 1.11 | – |
| CN(C)[C@@H]1C(O)=C(C(N)=O)C(=O)[C@@]2(O)C(O)=C3C(=O)c4c(O)cccc4[C@@](C)(O)[C@H]3C[C@@H]12 [Tetracycline] | 0.62 | 0.79 | 1.29 | 1.29 | 1.96 | 1.12 | 1.12 | 1.23 | 0.89 | 0.92 | 0.34 | – |
